{
  "source": "patent US9532938B2",
  "about": "“Esters of O-substituted hydroxy carboxylic acids and preparations thereof” (Eastman Chemical Company, priority 2010, dated 2017)",
  "target": "T1, Novozym 435 (Candida antarctica lipase B immobilized on acrylic resin) (Moesziomyces antarcticus, UniProt P41365)",
  "T1 construct": "purchased",
  "T1 sequence (P41365 26-342)": "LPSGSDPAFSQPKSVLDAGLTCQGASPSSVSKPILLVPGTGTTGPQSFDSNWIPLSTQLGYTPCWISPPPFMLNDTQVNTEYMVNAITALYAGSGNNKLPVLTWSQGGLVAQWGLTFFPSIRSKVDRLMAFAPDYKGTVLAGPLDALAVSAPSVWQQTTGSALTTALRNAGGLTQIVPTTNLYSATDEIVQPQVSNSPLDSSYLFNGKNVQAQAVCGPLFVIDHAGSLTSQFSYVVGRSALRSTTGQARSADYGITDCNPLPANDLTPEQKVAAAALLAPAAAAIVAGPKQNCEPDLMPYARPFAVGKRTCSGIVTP",
  "experiment": "Enzymatic hydrolysis of oleyl glycolyl retinoate with Novozym 435",
  "type": "in vitro ADME",
  "details": "toluene / pH 7 phosphate buffer",
  "protocol": "Oleyl glycolyl retinoate (50 mg; 0.082 mmol) was dissolved in 1 mL of toluene. pH 7 Phosphate buffer (1 mL) was added followed by Novozym 435 (50 mg). The mixture was stirred for 1 h at ambient temperature to afford 5% hydrolysis according to HPLC analysis.",
  "data": [
    {"compound": "CCCCCCCC/C=C\\CCCCCCCCOC(=O)COC(=O)/C=C(C)/C=C/C=C(C)/C=C/C1=C(C)CCCC1(C)C", "note": "[Oleyl glycolyl retinoate, Oleyl Glycolyl Retinoate]", "values": [
      {"measurement": "hydrolysis according to HPLC analysis", "setting": "Novozym 435 (50 mg), stirred 1 h at ambient temperature", "value": 5, "unit": "%"},
      {"measurement": "hydrolysis, control reaction without enzyme", "setting": "no enzyme, ambient temperature", "value": "no hydrolysis"}
    ]}
  ]
}
